The numbers were not newly measured in US20240033215A1 (AMOS PHARM, priority 2022, published 2024), which cites them from elsewhere.

Values after ≈ are worked out from the molar mass of the structure shown. Read-outs that look alike come from different tables or passages of the source.

As a reminder, the solubility is the dissolved amount per volume that the medium holds. Regarding `CC(C)Cc1ccc([C@H](C)C(=O)O)cc1` [Dexibuprofen], the solubility runs as follows: (at acidic pH) 0.078 mg/mL (≈ 0.378 mM); (at alkaline pH) 291 mg/mL (≈ 1410 mM).
